Bridge positions count the residues as written; N and C are the ends. Square brackets hold non-standard residues; d marks the D form. Peptide text beside a SMILES is read from it. * marks the point of attachment. Phe(4-COOH) = N[C@@H](Cc1ccc(C(=O)O)cc1)C(=O)O; Phe(2-CF3) = N[C@@H](Cc1ccccc1C(F)(F)F)C(=O)O; Phe(3,5-F2) = N[C@@H](Cc1cc(F)cc(F)c1)C(=O)O; Phe(2,4-F2) = N[C@@H](Cc1ccc(F)cc1F)C(=O)O; Bip = N[C@@H](Cc1ccc(-c2ccccc2)cc1)C(=O)O; Phe(3-F) = N[C@@H](Cc1cccc(F)c1)C(=O)O; Phe(3-Me) = Cc1cccc(C[C@H](N)C(=O)O)c1; Phe(4-F) = N[C@@H](Cc1ccc(F)cc1)C(=O)O; Phe(2-F) = N[C@@H](Cc1ccccc1F)C(=O)O; Val(3-OH) = CC(C)(O)[C@H](N)C(=O)O; Cha = N[C@@H](CC1CCCCC1)C(=O)O; Carboxymethyl = O=C(O)C*; Nle = CCCC[C@H](N)C(=O)O; Orn = NCCC[C@H](N)C(=O)O; Aun = NCCCCCCCCCCC(=O)O; Dab = NCC[C@H](N)C(=O)O; Nva = CCC[C@H](N)C(=O)O; Dap = NC[C@H](N)C(=O)O; AEEA = NCCOCCOCC(=O)O
Target: T1, PD-1/PD-L1 interaction (PE-labeled human PD-L1-Ig binding to Jurkat cell line over-expressing human PD-1) (Homo sapiens, UniProt Q15116)
T1 construct: expressed in transfected cells; host or cells: Jurkat
T1 sequence (Q15116 25-288): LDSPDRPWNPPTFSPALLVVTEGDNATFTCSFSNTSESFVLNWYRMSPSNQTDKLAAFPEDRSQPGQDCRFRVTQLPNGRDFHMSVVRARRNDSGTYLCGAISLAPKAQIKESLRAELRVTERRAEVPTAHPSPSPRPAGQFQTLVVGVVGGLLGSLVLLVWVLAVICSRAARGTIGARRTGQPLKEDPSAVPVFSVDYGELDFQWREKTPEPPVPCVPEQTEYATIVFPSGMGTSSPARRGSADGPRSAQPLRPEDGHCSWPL
Experiment: Jurkat-PD-1 Cell Binding High-Content Screening Assay (CBA)
Assay type: cell-based
Conditions: Jurkat cell line over-expressing human PD-1; PE-labeled PD-L1-Ig 20 nM final; read-out: Jurkat hPD1-PDL1 IC50
Method in brief: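 Jurkat-hPD-1 cells, DMEM/10% FCS; cpd 2 h 37° C; PE-PD-L1-Ig 20 nM final, 1 h; 4% PFA fix + Hoechst 33342, 3× dPBS wash; high-content imaging read-out.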

SMILES	IC50
Cc1cccc(C[C@@H]2NC(=O)[C@H](CC(=O)O)NC(=O)[C@H](Cc3ccc(OCC(=O)O)cc3)NC(=O)[C@H](CN)NC(=O)CSC[C@@H](C(=O)N[C@@H](CCN)C(=O)NCCOCCOCC(=O)NCCCCCCCCCCC(=O)O)NC(=O)[C@H](CCC(=O)O)NC(=O)[C@H](C(C)C)NC(=O)[C@H](CC(C)C)NC(=O)[C@H](CCN)NC(=O)[C@@H](CC(C)C)NC(=O)[C@H](CCCN)NC(=O)[C@H](Cc3ccc(OCC(=O)O)cc3)NC(=O)[C@H](Cc3ccc(-c4ccccc4)cc3)NC(=O)[C@H](Cc3ccc(OCC(=O)O)cc3)NC2=O)c1 [Compound 1257] ({CH2CO}-[Dap]Y(Carboxymethyl)D[Phe(3-Me)]Y(Carboxymethyl)[Bip]Y(Carboxymethyl)[Orn][dL][Dab]LVEC[Dab][AEEA][Aun]-OH; thioether N-14)	0.02 µM
CCCC[C@@H]1NC(=O)[C@H](CCN)NC(=O)[C@@H](CC(C)C)NC(=O)[C@H](CCCN)NC(=O)[C@H](Cc2ccc(OCC(=O)O)cc2)NC(=O)[C@H](Cc2ccc(-c3ccccc3)cc2)NC(=O)[C@H](Cc2ccc(OCC(=O)O)cc2)NC(=O)[C@H](Cc2cccc(C)c2)NC(=O)[C@H](CC(=O)O)NC(=O)[C@H](Cc2ccc(OCC(=O)O)cc2)NC(=O)[C@H](CN)NC(=O)CSC[C@@H](C(=O)N[C@@H](CCN)C(=O)NCCOCCOCC(=O)NCCCCCCCCCCC(=O)O)NC(=O)[C@H](CCC(=O)O)NC(=O)[C@H](C(C)C)NC1=O [Compound 1258] ({CH2CO}-[Dap]Y(Carboxymethyl)D[Phe(3-Me)]Y(Carboxymethyl)[Bip]Y(Carboxymethyl)[Orn][dL][Dab][Nle]VEC[Dab][AEEA][Aun]-OH; thioether N-14)	0.0446 µM
CCC[C@@H]1NC(=O)[C@H](CCN)NC(=O)[C@@H](CC(C)C)NC(=O)[C@H](CCCN)NC(=O)[C@H](Cc2ccc(OCC(=O)O)cc2)NC(=O)[C@H](Cc2ccc(-c3ccccc3)cc2)NC(=O)[C@H](Cc2ccc(OCC(=O)O)cc2)NC(=O)[C@H](Cc2cccc(C)c2)NC(=O)[C@H](CC(=O)O)NC(=O)[C@H](Cc2ccc(OCC(=O)O)cc2)NC(=O)[C@H](CN)NC(=O)CSC[C@@H](C(=O)N[C@@H](CCN)C(=O)NCCOCCOCC(=O)NCCCCCCCCCCC(=O)O)NC(=O)[C@H](CCC(=O)O)NC(=O)[C@H](C(C)C)NC1=O [Compound 1259] ({CH2CO}-[Dap]Y(Carboxymethyl)D[Phe(3-Me)]Y(Carboxymethyl)[Bip]Y(Carboxymethyl)[Orn][dL][Dab][Nva]VEC[Dab][AEEA][Aun]-OH; thioether N-14)	0.153 µM
Cc1cccc(C[C@@H]2NC(=O)[C@H](CC(=O)O)NC(=O)[C@H](Cc3ccc(OCC(=O)O)cc3)NC(=O)[C@H](CN)NC(=O)CSC[C@@H](C(=O)N[C@@H](CCN)C(=O)NCCOCCOCC(=O)NCCCCCCCCCCC(=O)O)NC(=O)[C@H](CCC(=O)O)NC(=O)[C@H](C(C)C)NC(=O)[C@H](Cc3ccccc3C(F)(F)F)NC(=O)[C@H](CCN)NC(=O)[C@@H](CC(C)C)NC(=O)[C@H](CCCN)NC(=O)[C@H](Cc3ccc(OCC(=O)O)cc3)NC(=O)[C@H](Cc3ccc(-c4ccccc4)cc3)NC(=O)[C@H](Cc3ccc(C(=O)O)cc3)NC2=O)c1 [Compound 1267] ({CH2CO}-[Dap]Y(Carboxymethyl)D[Phe(3-Me)][Phe(4-COOH)][Bip]Y(Carboxymethyl)[Orn][dL][Dab][Phe(2-CF3)]VEC[Dab][AEEA][Aun]-OH; thioether N-14)	0.0152 µM
Cc1cccc(C[C@@H]2NC(=O)[C@H](CC(=O)O)NC(=O)[C@H](Cc3ccc(OCC(=O)O)cc3)NC(=O)[C@H](CN)NC(=O)CSC[C@@H](C(=O)N[C@@H](CCN)C(=O)NCCOCCOCC(=O)NCCCCCCCCCCC(=O)O)NC(=O)[C@H](CCC(=O)O)NC(=O)[C@H](C(C)C)NC(=O)[C@H](Cc3ccc(F)cc3)NC(=O)[C@H](CCN)NC(=O)[C@@H](CC(C)C)NC(=O)[C@H](CCCN)NC(=O)[C@H](Cc3ccc(OCC(=O)O)cc3)NC(=O)[C@H](Cc3ccc(-c4ccccc4)cc3)NC(=O)[C@H](Cc3ccc(C(=O)O)cc3)NC2=O)c1 [Compound 1270] ({CH2CO}-[Dap]Y(Carboxymethyl)D[Phe(3-Me)][Phe(4-COOH)][Bip]Y(Carboxymethyl)[Orn][dL][Dab][Phe(4-F)]VEC[Dab][AEEA][Aun]-OH; thioether N-14)	0.0484 µM
Cc1cccc(C[C@@H]2NC(=O)[C@H](CC(=O)O)NC(=O)[C@H](Cc3ccc(OCC(=O)O)cc3)NC(=O)[C@H](CN)NC(=O)CSC[C@@H](C(=O)N[C@@H](CCN)C(=O)NCCOCCOCC(=O)NCCCCCCCCCCC(=O)O)NC(=O)[C@H](CCC(=O)O)NC(=O)[C@H](C(C)C)NC(=O)[C@H](Cc3cccc(C)c3)NC(=O)[C@H](CCN)NC(=O)[C@@H](CC(C)C)NC(=O)[C@H](CCCN)NC(=O)[C@H](Cc3ccc(OCC(=O)O)cc3)NC(=O)[C@H](Cc3ccc(-c4ccccc4)cc3)NC(=O)[C@H](Cc3ccc(C(=O)O)cc3)NC2=O)c1 [Compound 1271] ({CH2CO}-[Dap]Y(Carboxymethyl)D[Phe(3-Me)][Phe(4-COOH)][Bip]Y(Carboxymethyl)[Orn][dL][Dab][Phe(3-Me)]VEC[Dab][AEEA][Aun]-OH; thioether N-14)	0.0199 µM
Cc1cccc(C[C@@H]2NC(=O)[C@H](CC(=O)O)NC(=O)[C@H](Cc3ccc(OCC(=O)O)cc3)NC(=O)[C@H](CN)NC(=O)CSC[C@@H](C(=O)N[C@@H](CCN)C(=O)NCCOCCOCC(=O)NCCCCCCCCCCC(=O)O)NC(=O)[C@H](CCC(=O)O)NC(=O)[C@H](C(C)C)NC(=O)[C@H](Cc3ccc(F)cc3F)NC(=O)[C@H](CCN)NC(=O)[C@@H](CC(C)C)NC(=O)[C@H](CCCN)NC(=O)[C@H](Cc3ccc(OCC(=O)O)cc3)NC(=O)[C@H](Cc3ccc(-c4ccccc4)cc3)NC(=O)[C@H](Cc3ccc(C(=O)O)cc3)NC2=O)c1 [Compound 1272] ({CH2CO}-[Dap]Y(Carboxymethyl)D[Phe(3-Me)][Phe(4-COOH)][Bip]Y(Carboxymethyl)[Orn][dL][Dab][Phe(2,4-F2)]VEC[Dab][AEEA][Aun]-OH; thioether N-14)	0.0742 µM

The next molecules have a lower IC50 than those just listed; values first:

IC50	SMILES
0.0093 µM	Cc1cccc(C[C@@H]2NC(=O)[C@H](CC(=O)O)NC(=O)[C@H](Cc3ccc(OCC(=O)O)cc3)NC(=O)[C@H](CN)NC(=O)CSC[C@@H](C(=O)N[C@@H](CCN)C(=O)NCCOCCOCC(=O)NCCCCCCCCCCC(=O)O)NC(=O)[C@H](CCC(=O)O)NC(=O)[C@H](C(C)C)NC(=O)[C@H](Cc3ccccc3)NC(=O)[C@H](CCN)NC(=O)[C@@H](CC(C)C)NC(=O)[C@H](CCCN)NC(=O)[C@H](Cc3ccc(OCC(=O)O)cc3)NC(=O)[C@H](Cc3ccc(-c4ccccc4)cc3)NC(=O)[C@H](Cc3ccc(OCC(=O)O)cc3)NC2=O)c1 [Compound 1261] ({CH2CO}-[Dap]Y(Carboxymethyl)D[Phe(3-Me)]Y(Carboxymethyl)[Bip]Y(Carboxymethyl)[Orn][dL][Dab]FVEC[Dab][AEEA][Aun]-OH; thioether N-14)
0.0056 µM	Cc1cccc(C[C@@H]2NC(=O)[C@H](CC(=O)O)NC(=O)[C@H](Cc3ccc(OCC(=O)O)cc3)NC(=O)[C@H](CC3CCCCC3)NC(=O)CSC[C@@H](C(=O)N[C@@H](CCN)C(=O)NCCOCCOCC(=O)NCCCCCCCCCCC(=O)O)NC(=O)[C@H](CO)NC(=O)[C@H](C(C)(C)O)NC(=O)[C@H](CC3CCCCC3)NC(=O)[C@H](CCN)NC(=O)[C@@H](CC(C)C)NC(=O)[C@H](CCCN)NC(=O)[C@H](Cc3ccc(OCC(=O)O)cc3)NC(=O)[C@H](Cc3ccc(-c4ccccc4)cc3)NC(=O)[C@H](Cc3ccc(OCC(=O)O)cc3)NC2=O)c1 [Compound 1263] ({CH2CO}-[Cha]Y(Carboxymethyl)D[Phe(3-Me)]Y(Carboxymethyl)[Bip]Y(Carboxymethyl)[Orn][dL][Dab][Cha][Val(3-OH)]SC[Dab][AEEA][Aun]-OH; thioether N-14)
0.014 µM	Cc1cccc(C[C@@H]2NC(=O)[C@H](CC(=O)O)NC(=O)[C@H](Cc3ccc(OCC(=O)O)cc3)NC(=O)[C@H](CN)NC(=O)CSC[C@@H](C(=O)N[C@@H](CCN)C(=O)NCCOCCOCC(=O)NCCCCCCCCCCC(=O)O)NC(=O)[C@H](CCC(=O)O)NC(=O)[C@H](C(C)C)NC(=O)[C@H](Cc3ccccc3F)NC(=O)[C@H](CCN)NC(=O)[C@@H](CC(C)C)NC(=O)[C@H](CCCN)NC(=O)[C@H](Cc3ccc(OCC(=O)O)cc3)NC(=O)[C@H](Cc3ccc(-c4ccccc4)cc3)NC(=O)[C@H](Cc3ccc(C(=O)O)cc3)NC2=O)c1 [Compound 1266] ({CH2CO}-[Dap]Y(Carboxymethyl)D[Phe(3-Me)][Phe(4-COOH)][Bip]Y(Carboxymethyl)[Orn][dL][Dab][Phe(2-F)]VEC[Dab][AEEA][Aun]-OH; thioether N-14)
0.0132 µM	Cc1cccc(C[C@@H]2NC(=O)[C@H](CC(=O)O)NC(=O)[C@H](Cc3ccc(OCC(=O)O)cc3)NC(=O)[C@H](CN)NC(=O)CSC[C@@H](C(=O)N[C@@H](CCN)C(=O)NCCOCCOCC(=O)NCCCCCCCCCCC(=O)O)NC(=O)[C@H](CCC(=O)O)NC(=O)[C@H](C(C)C)NC(=O)[C@H](Cc3cccc(F)c3)NC(=O)[C@H](CCN)NC(=O)[C@@H](CC(C)C)NC(=O)[C@H](CCCN)NC(=O)[C@H](Cc3ccc(OCC(=O)O)cc3)NC(=O)[C@H](Cc3ccc(-c4ccccc4)cc3)NC(=O)[C@H](Cc3ccc(C(=O)O)cc3)NC2=O)c1 [Compound 1268] ({CH2CO}-[Dap]Y(Carboxymethyl)D[Phe(3-Me)][Phe(4-COOH)][Bip]Y(Carboxymethyl)[Orn][dL][Dab][Phe(3-F)]VEC[Dab][AEEA][Aun]-OH; thioether N-14)
0.0114 µM	Cc1cccc(C[C@@H]2NC(=O)[C@H](CC(=O)O)NC(=O)[C@H](Cc3ccc(OCC(=O)O)cc3)NC(=O)[C@H](CN)NC(=O)CSC[C@@H](C(=O)N[C@@H](CCN)C(=O)NCCOCCOCC(=O)NCCCCCCCCCCC(=O)O)NC(=O)[C@H](CCC(=O)O)NC(=O)[C@H](C(C)C)NC(=O)[C@H](Cc3cc(F)cc(F)c3)NC(=O)[C@H](CCN)NC(=O)[C@@H](CC(C)C)NC(=O)[C@H](CCCN)NC(=O)[C@H](Cc3ccc(OCC(=O)O)cc3)NC(=O)[C@H](Cc3ccc(-c4ccccc4)cc3)NC(=O)[C@H](Cc3ccc(C(=O)O)cc3)NC2=O)c1 [Compound 1269] ({CH2CO}-[Dap]Y(Carboxymethyl)D[Phe(3-Me)][Phe(4-COOH)][Bip]Y(Carboxymethyl)[Orn][dL][Dab][Phe(3,5-F2)]VEC[Dab][AEEA][Aun]-OH; thioether N-14)

— patent US20260022142A1, “MACROCYCLIC IMMUNOMODULATORS” (Bristol-Myers Squibb Company, priority 2022, published 2026)
